This experiment has as its system HCT 116 cells. The experiment can be described thus: Viability assay in HCT 116 cells (CellTiter-Glo Luminescent Cell Viability Assay). The conditions noted are these: HCT 116 human colon carcinoma cells, 5 days (120 h) incubation, 10 concentrations 30 μM to 0.0015 μM, ATP luminescence. The format is cell-based. The protocol: Viability Assay in HCT 116 Cells
A viability assay was performed using the CellTiter-Glo® Luminescent Cell Viability Assay (see Promega Corporation's Technical Bulletin No. 288, pp. 1-11 [revised February 2004] which is hereby incorporated by reference in its entirety). This assay is a homogeneous method of determining the number of viable cells in culture based on quantitation of the ATP present, an indicator of metabolically active cells. The assay is designed for use with multiwell formats, making it ideal for automated high-throughput screening (HTS), cell proliferation and cytotoxicity assays. The homogeneous assay procedure involves adding a single reagent (containing luciferase, luciferan substrate, and buffer) directly to cells cultured in serum-supplemented medium. Cell washing, removal of medium and multiple pipetting steps are not required. The system detects as few as 15 cells/well in a 384-well format in 10 minutes after adding reagent and mixing.
The homogeneous “add-mix-measure” format results in cell lysis and generation of a luminescent signal proportional to the amount of ATP present. The amount of ATP is directly proportional to the number of cells present in culture. The above-referenced assay generates a “glow-type” luminescent signal, produced by the luciferase reaction, which has a half-life generally greater than five hours, depending on cell type and medium used. The extended half-life eliminates the need to use reagent injectors and provides flexibility for continuous or batch mode processing of multiple plates. The unique homogeneous format avoids errors that may be introduced by other ATP measurement methods that require multiple steps.
HCT 116 cells (human colon carcinoma, ATCC-No. CCl-247) were cultivated in RPMI 1640 medium with GlutaMAX™ I (cell culture media that contains L-Alanyl-L-Glutamine [a stabilized form/source of L-Glutamine] from Invitrogen, Cat-No. 61870-010), 5% Fetal Calf Serum (FCS, Sigma Cat-No. F4135 (FBS)); 100 Units/ml penicillin/100 μg/ml streptomycin (=Pen/Strep from Invitrogen Cat. No. 15140). For the assay the cells were seeded in 384 well plates, 1000 cells per well, in the same medium. The next day the test compounds were added in various concentrations ranging from 30 μM to 0.0015 μM (10 concentrations, 1:3 diluted). After 5 days the viability assay was performed according to the instructions of the manufacturer. In brief: the cell-plate was equilibrated to room temperature for approximately 30 minutes and then the reagent (containing luciferase, luciferan substrate, and buffer) was added. The contents were carefully mixed for 15 minutes to induce cell lysis. After 45 minutes the luminescent signal was measured in Victor 2, (scanning multiwell spectrophotometer, Wallac).
1st. Day: • Medium: RPMI 1640 with GlutaMAX™ I (Invitrogen, Cat-No. 61870), 5% FCS (Sigma Cat.-No. F4135), Pen/Strep (Invitrogen, Cat No. 15140). • HCT116 (ATCC-No. CCl-247): 1000 cells in 60 μl per well of 384 well plate (Greiner 781098, μClear-plate white) • After seeding incubate plates 24 h at 37° C., 5% CO2
2nd. Day: Induction (Treatment with Compounds, 10 Concentrations):
In order to achieve a final concentration of 30 μM as highest concentration 3.5 μl of 10 mM compound stock solution were added directly to 163 μl media. Then step e) of the dilution procedure described below, was followed.
In general terms: In ATP-based viability assays light output follows the ATP content of the culture.

pIC50: −log10 of the molar value. Counter-ions that a name gives are not always drawn.

`O=C(NS(=O)(=O)c1ccc(N2CCOCC2)nc1)c1ccc(Cl)cc1Cl` [Example 1-1, 6-morpholin-4-yl-pyridine-3-sulfonic acid 2,4-dichloro-benzoylamide; sodium salt] gave a negative-log IC50 (pIC50) of 4.80 to 6.00.
The figure for `Cc1cc(Cl)ccc1C(=O)NS(=O)(=O)c1ccc(N2CCOCC2)nc1` [Example 1-2, 6-Morpholin-4-yl-pyridine-3-sulfonic acid 4-chloro-2-methyl-benzoylamide; sodium salt] is 5.27; for `Cc1cc(Br)ccc1C(=O)NS(=O)(=O)c1ccc(N2CCOCC2)nc1` [Example 1-3, 6-Morpholin-4-yl-pyridine-3-sulfonic acid 4-bromo-2-methyl-benzoylamide; sodium salt] it is 4.80 to 6.00; for `Cc1ccc(C(=O)NS(=O)(=O)c2ccc(N3CCOCC3)nc2)c(Br)c1` [Example 1-4, 6-Morpholin-4-yl-pyridine-3-sulfonic acid 2-bromo-4-methyl-benzoylamide; sodium salt] it is 4.80 to 6.00.
As for `O=C(NS(=O)(=O)c1cnc(Cl)c(Br)c1)c1ccc(Br)cc1Cl` [Example 1-7, 5-Bromo-6-chloro-pyridine-3-sulfonic acid 4-bromo-2-chloro-benzoylamide; sodium salt], the figure is 5.07; as for `O=C(NS(=O)(=O)c1cnc(Cl)c(Br)c1)c1ccc(Cl)cc1Br` [Example 1-8, 5-Bromo-6-chloro-pyridine-3-sulfonic acid 2-bromo-4-chloro-benzoylamide; sodium salt], 4.80 to 6.00; as for `O=C(NS(=O)(=O)c1ccc(N2CCOCC2)nc1)c1ccc(F)cc1Cl` [Example 1-10, 6-Morpholin-4-yl-pyridine-3-sulfonic acid 2-chloro-4-fluoro-benzoylamide; sodium salt], 4.80 to 6.00.
As to `O=C(NS(=O)(=O)c1cnc(Cl)c(Br)c1)c1ccc(Cl)cc1Cl` [Example 1-13, 5-Bromo-6-chloro-pyridine-3-sulfonic acid 2,4-dichloro-benzoylamide; sodium salt], the pIC50 was 4.80 to 6.00.
The figure for `O=C(NS(=O)(=O)c1ccc(Oc2ccccc2)nc1)c1ccc(C(F)(F)F)cc1F` [Example 1-15, 6-Phenoxy-pyridine-3-sulfonic acid 2-fluoro-4-trifluoromethyl-benzoylamide; sodium salt] is 4.80 to 6.00; for `O=C(NS(=O)(=O)c1cnc(Cl)c(Br)c1)c1ccc(C(F)(F)F)cc1C(F)(F)F` [Example 1-18, 5-Bromo-6-chloro-pyridine-3-sulfonic acid 2,4-bis-trifluoromethyl-benzoylamide; sodium salt] it is 4.80 to 6.00.
As for `O=C(NS(=O)(=O)c1ccc(Oc2ccccc2)nc1)c1ccc(Cl)cc1F` [Example 1-20, 6-Phenoxy-pyridine-3-sulfonic acid 4-chloro-2-fluoro-benzoylamide; sodium salt], the figure is 4.80 to 6.00; as for `O=C(NS(=O)(=O)c1ccc(Oc2ccccc2)nc1)c1ccc(F)cc1C(F)(F)F` [Example 1-21, 6-Phenoxy-pyridine-3-sulfonic acid 4-fluoro-2-trifluoromethyl-benzoylamide; sodium salt], 4.80 to 6.00.
The figure for `O=C(NS(=O)(=O)c1cccnc1)c1ccc(Cl)cc1Cl` [Example 1-24, Pyridine-3-sulfonic acid 2,4-dichloro-benzoylamide; sodium salt] is 5.50.
`O=C(NS(=O)(=O)c1ccc(Oc2ccccc2)nc1)c1ccc(Br)cc1Cl` [Example 1-28, 6-Phenoxy-pyridine-3-sulfonic acid 4-bromo-2-chloro-benzoylamide; sodium salt] gave a pIC50 of 4.80 to 6.00.
As for `O=C(NS(=O)(=O)c1ccc(N2CCOCC2)nc1)c1ccc(Cl)cc1Br` [Example 1-29, 6-Morpholin-4-yl-pyridine-3-sulfonic acid 2-bromo-4-chloro-benzoylamide; sodium salt], the figure is 4.80 to 6.00.
In turn, `O=C(NS(=O)(=O)c1ccc(Oc2ccccc2)nc1)c1ccc(Cl)cc1Br` [Example 1-33, 6-Phenoxy-pyridine-3-sulfonic acid 2-bromo-4-chloro-benzoylamide; sodium salt] showed a pIC50 of 4.80 to 6.00.
The figure for `O=C(NS(=O)(=O)c1cccnc1)c1ccc(C(F)(F)F)cc1C(F)(F)F` [Example 1-38, Pyridine-3-sulfonic acid 2,4-bis-trifluoromethyl-benzoylamide; sodium salt] is 4.80 to 6.00; for `Cc1ccc(C(=O)NS(=O)(=O)c2ccc(Oc3ccccc3)nc2)c(Br)c1` [Example 1-40, 6-Phenoxy-pyridine-3-sulfonic acid 2-bromo-4-methyl-benzoylamide; sodium salt] it is 4.80 to 6.00.
As for `COc1cc(Cl)ccc1C(=O)NS(=O)(=O)c1ccc(N2CCC(OC)CC2)nc1` [Example 1-45, 4-Methoxy-3,4,5,6-tetrahydro-2H-[1,2′]bipyridinyl-5′-sulfonic acid 4-chloro-2-methoxy-benzoylamide; sodium salt], the figure is 4.80 to 6.00; as for `COc1cc(Cl)ccc1C(=O)NS(=O)(=O)c1ccc(N2CCSCC2)nc1` [Example 1-47, 6-Thiomorpholin-4-yl-pyridine-3-sulfonic acid 4-chloro-2-methoxy-benzoylamide], 4.80 to 6.00.
The figure for `O=C(NS(=O)(=O)c1ccc(N2CCCCCC2)nc1)c1ccc(Cl)cc1C(F)(F)F` [Example 1-49, 6-Azepan-1-yl-pyridine-3-sulfonic acid 4-chloro-2-trifluoromethyl-benzoylamide] is 4.80 to 6.00; for `CC1CCCN(c2ccc(S(=O)(=O)NC(=O)c3ccc(Cl)cc3C(F)(F)F)cn2)C1` (stereo not drawn) [Example 1-51, 3-Methyl-3,4,5,6-tetrahydro-2H-[1,2′]bipyridinyl-5′-sulfonic acid 4-chloro-2-trifluoromethyl-benzoylamide; ammonium salt] it is 4.80 to 6.00; for `CCCN(CCC)c1ccc(S(=O)(=O)NC(=O)c2ccc(Cl)cc2C(F)(F)F)cn1` [Example 1-54, 6-Dipropylamino-pyridine-3-sulfonic acid 4-chloro-2-trifluoromethyl-benzoylamide] it is 4.80 to 6.00.
`O=C(NS(=O)(=O)c1ccc(N2CCSCC2)nc1)c1ccc(Cl)cc1C(F)(F)F` [Example 1-56, 6-Thiomorpholin-4-yl-pyridine-3-sulfonic acid 4-chloro-2-trifluoromethyl-benzoylamide; ammonium salt]: the pIC50 was 4.80 to 6.00.
The figure for `CCCCN(CC)c1ccc(S(=O)(=O)NC(=O)c2ccc(Cl)cc2C(F)(F)F)cn1` [Example 1-59, 6-(Butyl-ethyl-amino)-pyridine-3-sulfonic acid 4-chloro-2-trifluoromethyl-benzoylamide; ammonium salt] is 4.80 to 6.00.
`CCCN(C)c1ccc(S(=O)(=O)NC(=O)c2ccc(F)cc2Cl)cn1` [Example 1-63, 6-(Methyl-propyl-amino)-pyridine-3-sulfonic acid 2-chloro-4-fluoro-benzoylamide] gave a pIC50 of 4.80 to 6.00.
The figure for `O=C(NS(=O)(=O)c1ccc(N2CCSCC2)nc1)c1ccc(F)cc1Cl` [Example 1-68, 6-Thiomorpholin-4-yl-pyridine-3-sulfonic acid 2-chloro-4-fluoro-benzoylamide] is 4.80 to 6.00; for `O=C(NS(=O)(=O)c1ccc(N2CCCCCC2)nc1)c1ccc(Cl)cc1Cl` [Example 1-69, 6-Azepan-1-yl-pyridine-3-sulfonic acid 2,4-dichloro-benzoylamide] it is 4.80 to 6.00.
As for `O=C(NS(=O)(=O)c1ccc(N2CCSCC2)nc1)c1ccc(Cl)cc1Cl` [Example 1-71, 6-Thiomorpholin-4-yl-pyridine-3-sulfonic acid 2,4-dichloro-benzoylamide], the figure is 4.80 to 6.00; as for `C[C@@H]1CN(c2ccc(S(=O)(=O)NC(=O)c3ccc(Cl)cc3C(F)(F)F)cn2)C[C@H](C)O1` [Example 1-72, 6-((2R,6S)-2,6-Dimethyl-morpholin-4-yl)-pyridine-3-sulfonic acid 4-chloro-2-trifluoromethyl-benzoylamide], 4.80 to 6.00.

A word on the pIC50: it is the IC50 on a negative log10 scale, so that one unit is a factor of ten.

(Values after patent publication US7625896B2, “Pyridylsulfonamide derivatives” (Hoffman-La Roche Inc., priority 2005, dated 2009).)
